Data reported in patent US20040063681A1, “Methods for using gold (III) complexes as anti-tumor and anti-HIV agents” (priority 2002, published 2004).
Several values for one entry are separate records, joined by “and”; a condition that tells them apart may be missing. Equal entries are not always repeated.

Assays:
[1] = target: T1, HIV-1 reverse transcriptase (Human immunodeficiency virus type 1 group M subtype B, UniProt P04585); experiment: HIV-1 reverse transcriptase activity, ELISA method; type: biochemical; conditions: ELISA; mean ± SE of at least three determinations; read-out: IC50 HIV-1 RT
T1 construct: treatment of HIV-1 RT in Lysis buffer (2 ng, 128.7 μL) with Complex 1j
Procedure: HIV-1 reverse transcriptase activities were measured by an ELISA method (see Eberle et al, J. Virol. Methods, 40:347-356 (1992) performed by incubating the enzyme with digoxigenin-labeled deoxyuridin-5′-triphosphate (dUTP) and the biotin-labeled analogue during reverse transcription starting from the template/primer hybrid poly(A)•oligo(dT)15. After reverse transcription, the newly synthesized DNA was immobilized onto streptavidin-coated ELISA wells, and the incorporation of the dioxigenin-labeled dUTP was assayed by chemiluminescence method. For example, treatment of HIV-1 RT in Lysis buffer (2 ng, 128.7 μL) with Complex 1j (1.3 μL of […] stock solution) dissolved in TBS at 37° C. produced significant RT activity inhibition (˜95%) after 30 min incubation.

plasmid DNA (pDR2) = experiment: Restriction endonuclease (ApaI) fragmentation assay
From the text: Binding of the metalloporphyrin onto a duplex DNA such as plasmid DNA (pDR2) is expected to occupy the binding site of the restriction enzyme ApaI, thereby inhibiting the enzymatic DNA digestion. See Ikeda et al., J. Am. Chem. Soc. 104:296-297 (1982).
After ApaI digestion, (lane B), three bands corresponding to 6.6, 4.4 and 2.0 kbp were observed.

[2] = system: Human Oral Epidermoid Carcinoma (multi-drug resistance, KB-V-1); experiment: MTT cytotoxicity, KB-V-1; type: cell-based; conditions: MTT, growth inhibition, multi-drug resistant
From the text: (§1) Human promyelocytic leukemia (HL-60), human hepatocellular carcinoma (HepG2), Human cervix epitheloid carcinoma cells (HeLa) and human oral epidermoid carcinoma cells (KB-3-1), were obtained from American Type Culture Collection (ATCC) (Rockville, Md.). The multi-drug-resistant variant KB-V1 cell line was obtained by stepwise selections for vinblastine resistance as described by Shen et al., J. Biol. Chem. 261:7762-7770 (1986)], and was generously provided by Dr Michael Gottesman (NIH, Bethesda, Md.). Human nasopharyngeal carcinoma cells (SUNE1 and its cisplatin resistance variant, CNE1) were derived from poorly differentiated NPC in Chinese patients as described by Gu et al., Chin. J. Cancer 2:270-272 (1983), and were generously provided by Dr S. W. Tsao (The University of Hong Kong, Hong Kong, PRC). Cell culture flasks and 96 well microtitre plates were from Nalge Nunc hit. Culture medium, other medium constituents and phosphate buffered saline (PBS) were obtained from Gibco BRL (Rockville, Md.). Cell Proliferation Kit I (MTT) was purchased from Roche (Mannheim, Germany).
The anti-cancer activities of the gold(III) porphyrin complexes were evaluated toward some established human cancer cell lines: promyelocytic leukemia (HL-60), hepatocellular carcinoma (HepG2), cervix epitheloid carcinoma (HeLa), epidermoid carcinoma (KB-3-1) and its multi-drug resistant variant (KB-V1), nasopharyngeal carcinoma (SUNE1) and its cisplatin-resistant variant (CNE1).

[3] = system: Human Oral Epidermoid Carcinoma (KB-3-1); experiment: MTT cytotoxicity, KB-3-1; type: cell-based; conditions: MTT, growth inhibition
From the text: Human promyelocytic leukemia (HL-60), human hepatocellular carcinoma (HepG2), Human cervix epitheloid carcinoma cells (HeLa) and human oral epidermoid carcinoma cells (KB-3-1), were obtained from American Type Culture Collection (ATCC) (Rockville, Md.). […] Cell culture flasks and 96 well microtitre plates were from Nalge Nunc hit. Culture medium, other medium constituents and phosphate buffered saline (PBS) were obtained from Gibco BRL (Rockville, Md.). Cell Proliferation Kit I (MTT) was purchased from Roche (Mannheim, Germany).

[4] = Control UV-vis titration with sodium dodecyl sulfate instead of DNA; type: binding; conditions: sodium dodecyl sulfate (0-5 μM) instead of DNA
From the text: See Neidle, S. DNA structure and recognition; Oxford University Press: Oxford, 1994; 74-79.

[5] = system: Human Promyelocytic Leukemia (HL-60); experiment: MTT cytotoxicity, HL-60; type: cell-based; conditions: growth inhibition
From the text: as §1
The anti-cancer activities of the gold(III) porphyrin complexes were evaluated toward some established human cancer cell lines: promyelocytic leukemia (HL-60), hepatocellular carcinoma (HepG2), cervix epitheloid carcinoma (HeLa), epidermoid carcinoma (KB-3-1) and its multi-drug resistant variant (KB-V1), nasopharyngeal carcinoma (SUNE1) and its cisplatin-resistant variant (CNE1). The experiments were carried out by following the MTT procedure (see Mosmann et al., J. Immunol. Methods 65:55-63 (1983). The IC50 values of the gold(III) porphyrin complexes together with that of cisplatin, and KAuCl4 are provided in Table 4a; and the IC50 values of the gold(III) Schiff-base and bis(pyridyl)carboxamide complexes are shown in Table 4b. The cytotoxicity profiles of some selected gold(III) porphyrin complexes toward SUNE1 and its cisplatin-resistant variant CNE1 are also shown in FIG. 7.

[6] = system: human lung fibroblast cells (CCD-19Lu); conditions: MTT
Procedure: Acute cytotoxicities of the gold(III) complexes to normal cells were evaluated using human lung fibroblast cells (CCD-19Lu) as model cell line. The percentages of cell survival at various doses of the gold complexes were determined by the MTT assay, and the toxicities profiles are shown in FIG. 15.

HeLa cells = experiment: Confocal microscopic experiment (cell morphology, AO/EB staining); type: cell-based, human; conditions: 0.5 μM, 15 h incubation
From the text: Confocal Microscopic Experiment. By examining cell morphology using scanning confocal microscopy, the type of cell death can be recognized. The early phase of apoptosis is characterized by the formation of apoptotic bodies while the integrity of the cell membrane is maintained without cell lysis. On the contrary, necrosis is characterized by cell lysis with the internal cellular components such as DNA being exposed. Using suitable staining agents (ethidium bromide (EB) for DNA and acridine orange (AO) for cell membrane) normal, necrotic and apoptotic cells can be distinguished by laser confocal microscopy. See Chan et al., Inorg. Chem. 41:3161-3171 (2002).
The picture of the cells is depicted in FIG. 12. […] Importantly, no cellular DNA was exposed due to necrosis.

Question: Which IC50 [1] does the source give for `C1=Cc2nc1c(-c1ccccc1)c1ccc([n-]1)c(-c1ccccc1)c1nc(c(-c3ccccc3)c3ccc([n-]3)c2-c2ccccc2)C=C1.[Au+3].[Cl-]` [Complex 1a] here?
Answer: 28400 nM and 28000 nM

Question: What about the “effect on ApaI digestion of pDR2” value (plasmid DNA (pDR2); Complex:DNA = 0.1:1 (lane C)) of the same compound?
Answer: partial DNA digestion was observed

Question: And the “effect on ApaI digestion of pDR2” value (plasmid DNA (pDR2); Complex:DNA bp = 1:1 (lane D))?
Answer: inhibition of the DNA digestion was observed

Question: And the IC50 [2]?
Answer: 120 nM

Question: What about the IC50 [3] of the same compound?
Answer: 200 nM

Question: What about the “hypochromicity of the Soret band” value [4] of the same compound?
Answer: 48%

Question: What about the IC50 [5] of the same compound?
Answer: 730 nM

Question: And the cell death ([6]; CCD-19Lu, 2 μM)?
Answer: 90%

Question: What about the IC50 ([6]; read-out: IC50 CCD-19Lu, mean ± SE of at least three determinations) of the same compound?
Answer: 910 ± 210 nM

Question: What about the “cell morphology (type of cell death)” value (HeLa cells) of the same compound?
Answer: living cells and apoptotic cells were observed
